# Measurements reported in publication PMC10600239, “Selective MCL-1 inhibitor ABBV-467 is efficacious in tumor models but is associated with cardiac troponin increases in patients” (Communications Medicine, 2023).
# Values joined by “and” are separate entries in the source; they are usually repeats but may differ in a detail not shown here. Equal entries are not always repeated.
# Tested on: OPM-2 xenografts
# Experiment: OPM-2 xenograft efficacy (tumor volume, body weight)
# Assay type: in vivo, mouse
# Settings: for Body Weight (g) Day 21, individual animals / Body Weight Day 21, Mean / Body Weight Day 21, Median / Relative to initial body wt., %: mouse, in vivo, iv
# Method: All animal studies were conducted in accordance with the guidelines approved by the Institutional Animal Care and Use Committees of AbbVie. The research protocol was approved by In Vivo Pharmacology at AbbVie prior to study initiation but was not publicly registered or disclosed. Female C.B-17 SCID-beige mice (AMO-1, OPM-2, NCI-H929, and OCI-AML2 xenografts) and female NSG mice (MV4-11-Red.Fluc systemic) were purchased from Charles River Laboratories (Wilmington, MA). Animals were housed in a light cycle-controlled room with HEPA filtration at 22 °C. Animals had nesting and climbing cage topper as the primary environmental enrichment. Animals were inoculated subcutaneously in the right flank with 5 × 10^6 (AMO-1, OPM-2, NCI-H929, and OCI-AML2) or intravenous (IV) with 5 × 10^6 (MV4-11-Red.Fluc). The inoculation volume (0.2 mL) comprised a 50:50 mixture of cells in growth media and Matrigel (BD Biosciences) for subcutaneous injections and 100% phosphate-buffered saline for IV administration. All cell lines used in this publication were authenticated using IDEXX for STR profiling as well as their IMPACT and human IMPACT panels for pathogen screening. Electronic calipers were used to measure the length and width of each tumor 2 to 3 times per week. Tumor volume was estimated by applying the following equation: volume = length × width^2/2. All groups remained blinded during measurements and dosing; only veterinary staff were aware of group identity. When tumors reached approximately 200 mm^3, mice were randomized by match and distributed into treatment and control groups. All xenograft trials were conducted using 5 to 10 mice per group, and all mice were ear tagged and monitored individually throughout the studies. Any animal with a tumor above 2000 mm^3 or 15% loss in body weight was euthanized and removed from the study. Tumor burden in the systemic MV4-11-Red.Fluc experiment was measured using an IVIS® spectrum from PerkinElmer by taking the total photon flux of the entire dorsal side of an individual mouse. Ten minutes prior to imaging, animals received intraperitoneally 0.2 mL of a 15-mg/mL solution of D-Luciferin (PerkinElmer, Catalog #122799) formulated in 100% phosphate-buffered saline. Animals were anesthetized using 3.5% isoflurane and maintained using 2%. Six days after inoculation, animals were imaged and randomized into vehicle and treatment groups at a total flux of ~1 × 10^8. A background control mouse that was tumor naive but received D-Luciferin was placed in the upper left corner of each image. The total flux from this animal was subtracted from the total flux of each animal present in the image.
# For in vivo studies, maximal tumor growth inhibition (TGI) was calculated as the greatest treatment response using the following equation: Maximal TGI = (1 − mean tumor volume of the treated group/mean tumor volume of the vehicle control group) × 100. The tumor growth delay (TGD) percentage was determined as the percentage increase of the median time period for the treatment group to reach an arbitrary tumor volume of 1000 mm^3 relative to the vehicle control group. […] A power analysis was conducted using historical data to determine the number of animals required to yield significance of 0.05 at a 30% difference. There were no animals excluded. Data from experiments in vivo were analyzed using the student’s t-test for TGI values and the Mann–Whitney U test for TGD using Excel and GraphPad Prism. Fisher’s exact test was used to probe significance of differences in response frequency.
# [1] = OPM-2 (DSMZ) xenograft, SCID-beige mouse, 25 mg/kg q7dx3 IV, Day 63
# [2] = OPM-2 (DSMZ) xenograft, SCID-beige mouse, 25 mg/kg q7dx3 IV, Day 70
# [3] = OPM-2 (DSMZ) xenograft, SCID-beige mouse, 25 mg/kg q7dx3 IV, Day 77
# [4] = OPM-2 (DSMZ) xenograft, SCID-beige mouse, 25 mg/kg q7dx3 IV, Day 106
# [5] = OPM-2 (DSMZ) xenograft, SCID-beige mouse, 25 mg/kg q7dx3 IV, Day 113
# [6] = OPM-2 (DSMZ) xenograft, SCID-beige mouse, 25 mg/kg q7dx3 IV, Day 120
# [7] = individual animals, 6.25 mg/kg q7dx3 IV, Day 37, OPM-2 (DSMZ) xenograft, SCID-beige mouse, 6.25 mg/kg
compound,measurement,setting,value
Cc1c(Cl)c2c(Cl)c(C)c1-c1c(-c3ccc(F)cc3)sc3ncnc(c13)O[C@@H](C(=O)O)Cc1cc(ccc1OCc1ccnc(-c3ccc(OC[C@H]4COCCO4)cc3)n1)OC[C@@H](CN1CCN(C)CC1)O2 [Compound A-1747745],"Body Weight Day 21, % T/C (mean)","OPM-2 (DSMZ) xenograft, SCID-beige mice, 25 mg/kg q7dx3 IV, Day 21, mean(T)/mean(C)",105.36%
same,"Body Weight Day 21, % T/C (median)","OPM-2 (DSMZ) xenograft, SCID-beige mice, 25 mg/kg q7dx3 IV, Day 21, median(T)/median(C)",105.36%
same,Tumor Volume (mm³) Day 63 (individual animals),[1],4 mm³
same,"Tumor Volume Day 63, Mean",[1],4.00 mm³
same,"Tumor Volume Day 63, Median",[1],4.00 mm³
same,Tumor Volume (mm³) Day 70 (individual animals),[2],4 mm³
same,"Tumor Volume Day 70, Mean",[2],4.00 mm³
same,"Tumor Volume Day 70, Median",[2],4.00 mm³
same,Tumor Volume (mm³) Day 77 (individual animals),[3],4 mm³
same,"Tumor Volume Day 77, Mean",[3],4.00 mm³
same,"Tumor Volume Day 77, Median",[3],4.00 mm³
same,Tumor Volume (mm³) Day 106 (individual animals),[4],4 mm³
same,"Tumor Volume Day 106, Mean",[4],4.00 mm³
same,"Tumor Volume Day 106, Median",[4],4.00 mm³
same,Tumor Volume (mm³) Day 113 (individual animals),[5],4 mm³
same,"Tumor Volume Day 113, Mean",[5],4.00 mm³
same,"Tumor Volume Day 113, Median",[5],4.00 mm³
same,Tumor Volume (mm³) Day 120 (individual animals),[6],4 mm³
same,"Tumor Volume Day 120, Mean",[6],4.00 mm³
same,"Tumor Volume Day 120, Median",[6],4.00 mm³
same,"Tumor Volume Day 37, Mean","group mean, 6.25 mg/kg q7dx3 IV, Day 37, OPM-2 (DSMZ) xenograft, SCID-beige mouse",1067.37 mm³
same,"Tumor Volume Day 37, Mean","group mean, 25 mg/kg q7dx3 IV, Day 37, OPM-2 (DSMZ) xenograft, SCID-beige mouse",4.00 mm³
same,"Tumor Volume Day 41, Mean","group mean, 25 mg/kg q7dx3 IV, Day 41, SCID-beige mice",4.00 mm³
same,"Tumor Volume Day 44, Mean","group mean, 25 mg/kg q7dx3 IV, Day 44, SCID-beige mice",4.00 mm³
same,"Tumor Volume (mm³) Day 86, Mean","group mean, 25 mg/kg q7dx3 IV, OPM-2 (DSMZ) xenograft, SCID-beige mice, Day 86",4.00 mm³
same,"Tumor Volume (mm³) Day 93, Mean","group mean, 25 mg/kg q7dx3 IV, OPM-2 (DSMZ) xenograft, SCID-beige mice, Day 93",4.00 mm³
same,"Tumor Volume (mm³) Day 101, Mean","group mean, 25 mg/kg q7dx3 IV, OPM-2 (DSMZ) xenograft, SCID-beige mice, Day 101",4.00 mm³
same,"Tumor Volume (mm³) Day 51, Mean","group mean, 25 mg/kg q7dx3 IV, OPM-2 (DSMZ) xenograft, SCID-beige mouse, Day 51",4.00 mm³
same,"Tumor Volume (mm³) Day 57, Mean","group mean, 25 mg/kg q7dx3 IV, OPM-2 (DSMZ) xenograft, SCID-beige mouse, Day 57",4.00 mm³
same,"Tumor Volume Day 37, Median","group median, 6.25 mg/kg q7dx3 IV, Day 37, OPM-2 (DSMZ) xenograft, SCID-beige mouse",1120.03 mm³
same,"Tumor Volume Day 37, Median","group median, 25 mg/kg q7dx3 IV, Day 37, OPM-2 (DSMZ) xenograft, SCID-beige mouse",4.00 mm³
same,"Tumor Volume Day 41, Median","group median, 25 mg/kg q7dx3 IV, Day 41, SCID-beige mice",4.00 mm³
same,"Tumor Volume Day 44, Median","group median, 25 mg/kg q7dx3 IV, Day 44, SCID-beige mice",4.00 mm³
same,"Tumor Volume (mm³) Day 86, Median","group median, 25 mg/kg q7dx3 IV, OPM-2 (DSMZ) xenograft, SCID-beige mice, Day 86",4.00 mm³
same,"Tumor Volume (mm³) Day 93, Median","group median, 25 mg/kg q7dx3 IV, OPM-2 (DSMZ) xenograft, SCID-beige mice, Day 93",4.00 mm³
same,"Tumor Volume (mm³) Day 101, Median","group median, 25 mg/kg q7dx3 IV, OPM-2 (DSMZ) xenograft, SCID-beige mice, Day 101",4.00 mm³
same,"Tumor Volume (mm³) Day 51, Median","group median, 25 mg/kg q7dx3 IV, OPM-2 (DSMZ) xenograft, SCID-beige mouse, Day 51",4.00 mm³
same,"Tumor Volume (mm³) Day 57, Median","group median, 25 mg/kg q7dx3 IV, OPM-2 (DSMZ) xenograft, SCID-beige mouse, Day 57",4.00 mm³
same,Mortality Observation Day 37,[7],GRPX and EUTV (3×)
same,Tumor Volume (mm³) Day 37,[7],830 mm³ and 1099 mm³ and 1199 mm³ and 1141 mm³
same,Tumor Volume (mm³) Day 37,"individual animals, 25 mg/kg q7dx3 IV, Day 37, OPM-2 (DSMZ) xenograft, SCID-beige mouse",4 mm³
same,Tumor Volume (mm³) Day 41,"individual animals, 25 mg/kg q7dx3 IV, Day 41, SCID-beige mice",4 mm³
same,Tumor Volume (mm³) Day 44,"individual animals, 25 mg/kg q7dx3 IV, Day 44, SCID-beige mice",4 mm³
same,Tumor Volume (mm³) Day 86,"individual animals, 25 mg/kg q7dx3 IV, OPM-2 (DSMZ) xenograft, SCID-beige mice, Day 86",4 mm³
same,Tumor Volume (mm³) Day 93,"individual animals, 25 mg/kg q7dx3 IV, OPM-2 (DSMZ) xenograft, SCID-beige mice, Day 93",4 mm³
same,Tumor Volume (mm³) Day 101,"individual animals, 25 mg/kg q7dx3 IV, OPM-2 (DSMZ) xenograft, SCID-beige mice, Day 101",4 mm³
same,Tumor Volume (mm³) Day 51,"individual animals, 25 mg/kg q7dx3 IV, OPM-2 (DSMZ) xenograft, SCID-beige mouse, Day 51",4 mm³
same,Tumor Volume (mm³) Day 57,"individual animals, 25 mg/kg q7dx3 IV, OPM-2 (DSMZ) xenograft, SCID-beige mouse, Day 57",4 mm³
same,"Body Weight (g) Day 21, individual animals",6.25 mg/kg,21 g
same,"Body Weight Day 21, Mean",6.25 mg/kg,21.00 g
same,"Body Weight Day 21, Median",6.25 mg/kg,21.00 g
same,"Relative to initial body wt., %",6.25 mg/kg,0.00%
same,"Body Weight (g) Day 21, individual animals",25 mg/kg,22 g
same,"Body Weight Day 21, Mean",25 mg/kg,22.13 g
same,"Body Weight Day 21, Median",25 mg/kg,22.13 g
same,"Relative to initial body wt., %",25 mg/kg,0.00%
